Test results published in publication PMC8159961, “Exploring protein hotspots by optimized fragment pharmacophores” (Nature Communications, 2021).
pKi: −log10 of the molar value. “And” between values parts separate entries of the source, which are not always exact repeats. Equal values may be shown once. Read-outs that look alike come from different tables or passages of the source.

Tests used:
[1] = target: T1, human thrombin (Homo sapiens, UniProt P00734); experiment: Protease inhibitory assay, chromogenic substrate S-2238; format: biochemical; conditions: Thrombin primary screening, substrate 40 µM, cmpd conc 500 µM; for vinit: replicate values
T1 construct: human thrombin; purchased Sigma-Aldrich

[2] = target: T2, bovine factor Xa (Bos taurus, UniProt P00743); experiment: Protease inhibitory assay, chromogenic substrate S-2222; format: biochemical; conditions: cmpd conc 200 µM; for vinit: replicate values; for pKi: FactorXa, one of two values averaged in Supplementary Data 1, read-out: Ki
T2 construct: bovine factor Xa, Chromogenix, 2 nkat/mL; purchased Chromogenix
T2 sequence (P00743 234-492 limits assumed): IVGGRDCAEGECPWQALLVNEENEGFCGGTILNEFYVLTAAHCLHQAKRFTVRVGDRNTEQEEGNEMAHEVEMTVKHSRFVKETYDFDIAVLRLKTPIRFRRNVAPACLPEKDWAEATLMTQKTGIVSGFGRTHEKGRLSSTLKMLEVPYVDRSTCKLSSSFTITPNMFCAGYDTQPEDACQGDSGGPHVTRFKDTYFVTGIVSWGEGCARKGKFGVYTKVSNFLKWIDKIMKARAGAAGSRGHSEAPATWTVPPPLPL
T2 sequence (P00743 41-180 partner limits assumed): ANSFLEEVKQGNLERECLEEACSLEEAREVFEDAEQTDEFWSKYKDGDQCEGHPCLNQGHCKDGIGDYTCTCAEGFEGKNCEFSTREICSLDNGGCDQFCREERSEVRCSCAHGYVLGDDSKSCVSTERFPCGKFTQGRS

[3] = FactorXa primary screening, substrate 100 µM
[4] = FactorXa Ki determination, substrate 100 µM
[5] = FactorXa Ki determination, substrate 200 µM

Row | SMILES | V0 / Vi [1] | vinit [1] | V0 / Vi [2, 3] | vinit [2, 3] | vinit, avrg. [2, 4] | vinit [2, 4] | V0 / Vi [2, 5] | vinit, avrg. [2, 5] | vinit [2, 5] | pKi ([2]; substrate 100 µM) | pKi ([2]; substrate 200 µM)
1 | O=C1CCC(=O)N(c2ccccc2)N1 [SX-H7] | 1.06 | 30 and 29.357 | 0.97 | 16.4 | – | – | – | – | – | – | –
2 | O=C1CC(CSc2ccc(Cl)cc2)=NN1 [SX-H8] | 0.97 | 33.5 and 31.286 | 0.99 | 15.686 and 16.6 | – | – | – | – | – | – | –
3 | O=C(c1ccccc1)N1CCC(CO)CC1 [SX-H9] | 1.03 | 31.714 and 29.571 | 0.93 | 17.7 and 16.5 | – | – | – | – | – | – | –
4 | O=C1CSC(Nc2ccc(F)cc2)=N1 [SX-H10] | 1.13 | 26.786 and 28.857 | 1.14 | 14.6 and 13.3 | – | – | – | – | – | – | –
5 | Cc1ccc(CCNc2ccccc2)cn1 [SX-H11] | 1.00 | 31.714 and 31.42 | 0.99 | 15.4 and 17 | – | – | – | – | – | – | –
6 | O=C1NC(=O)/C(=C\c2cccs2)N1 [SX-H12] | 1.13 | 29.929 and 26.071 | 1.27 | 12.7 and 12.5 | 13.665 | 13.174 and 12.668 and 15.15 | 1.24 | 27.296 | 25.633 and 28.073 and 28.18 | 3.26 | 3.42
